The supplement of paper PMC10307832

Columns and labels:
Test in all cases: relative viability (nuclei count vs DMSO), 5 days (fraction); higher = more cells survive
[1] = test system: ChaGo-K-1
Procedure, shortened: (§1)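 Five library-drug doses in √10 steps were combined with a fixed anchor-drug dose, or a single drug was given alone, by pin tool to lung cancer cell lines in 1536-well plates the day after seeding. Nuclei were stained and counted after 5 days. Relative viability is the nuclei count in treated wells over that in vehicle wells, taken as the median of duplicate plates.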

[2] = test system: EMC-BAC-2
Procedure, shortened: as §1

[3] = test system: EPLC-272H
Procedure, shortened: as §1

[4] = test system: HCC-366
Procedure, shortened: as §1

[5] = test system: HCC-44
Procedure, shortened: as §1

[6] = test system: HCC-78
Procedure, shortened: as §1

[7] = test system: HCC-827
Procedure, shortened: as §1

[8] = test system: LCLC-103H
Procedure, shortened: as §1

[9] = test system: LK-2
Procedure, shortened: as §1

[10] = test system: LOU-NH91
Procedure, shortened: as §1

[11] = test system: LU99A
Procedure, shortened: as §1

[12] = test system: LXF-289
Procedure, shortened: as §1

[13] = test system: NCI-H1563
Procedure, shortened: as §1

[14] = test system: NCI-H1666
Procedure, shortened: as §1

[15] = test system: NCI-H1975
Procedure, shortened: as §1

[16] = test system: NCI-H2085
Procedure, shortened: as §1

[17] = test system: NCI-H2126
Procedure, shortened: as §1

[18] = test system: NCI-H23
Procedure, shortened: as §1

[19] = test system: NCI-H2405
Procedure, shortened: as §1

[20] = test system: NCI-H3122
Procedure, shortened: as §1

[21] = test system: RERF-LC-KJ
Procedure, shortened: as §1

[22] = test system: SK-LU-1
Procedure, shortened: as §1

[23] = test system: SW 1573
Procedure, shortened: as §1

[24] = test system: SW 900
Procedure, shortened: as §1

In the case of COc1cc(N2CCC(C(N)=O)CC2)ccc1Nc1nc(N)c(Cl)c(Nc2ccccc2S(=O)(=O)C(C)C)n1 [HG-5-88-01] + Nc1nc2[nH]cc(CCc3ccc(C(=O)N[C@@H](CCC(=O)O)C(=O)O)cc3)c2c(=O)[nH]1 [Pemetrexed] (partner 0.2 µM), the relative viability ([1]; first compound 0.04 µM) is reported as 0.262, the relative viability ([1]; first compound 0.1265 µM) is reported as 0.271 and the relative viability ([1]; first compound 0.4 µM) is reported as 0.24. It also gave a relative viability ([1]; first compound 1.265 µM) of 0.266, a relative viability ([1]; first compound 4 µM) of 0.258 and a relative viability ([2]; first compound 0.04 µM) of 0.416. The relative viability ([2]; first compound 0.1265 µM) was 0.432, the relative viability ([2]; first compound 0.4 µM) was 0.385 and the relative viability ([2]; first compound 1.265 µM) was 0.461. For the same compound, the relative viability ([2]; first compound 4 µM) was 0.477, the relative viability ([3]; first compound 0.04 µM) was 0.341 and the relative viability ([3]; first compound 0.1265 µM) was 0.262. The relative viability ([3]; first compound 0.4 µM) was 0.319, the relative viability ([3]; first compound 1.265 µM) was 0.307 and the relative viability ([3]; first compound 4 µM) was 0.0795. It also gave a relative viability ([4]; first compound 0.04 µM) of 0.197, a relative viability ([4]; first compound 0.1265 µM) of 0.146 and a relative viability ([4]; first compound 0.4 µM) of 0.113. It also gave a relative viability ([4]; first compound 1.265 µM) of 0.237, a relative viability ([4]; first compound 4 µM) of 0.287 and a relative viability ([5]; first compound 0.04 µM) of 0.596. For the same compound, the relative viability ([5]; first compound 0.1265 µM) was 0.662, the relative viability ([5]; first compound 0.4 µM) was 0.538 and the relative viability ([5]; first compound 1.265 µM) was 0.699. The relative viability ([5]; first compound 4 µM) was 0.69, the relative viability ([6]; first compound 0.04 µM) was 0.824 and the relative viability ([6]; first compound 0.1265 µM) was 0.814. The relative viability ([6]; first compound 0.4 µM) was 0.884, the relative viability ([6]; first compound 1.265 µM) was 0.849 and the relative viability ([6]; first compound 4 µM) was 0.795. It also gave a relative viability ([7]; first compound 0.04 µM) of 0.24, a relative viability ([7]; first compound 0.1265 µM) of 0.262 and a relative viability ([7]; first compound 0.4 µM) of 0.216. The relative viability ([7]; first compound 1.265 µM) was 0.141, the relative viability ([7]; first compound 4 µM) was 0.193 and the relative viability ([8]; first compound 0.04 µM) was 0.443. The relative viability ([8]; first compound 0.1265 µM) was 0.505, the relative viability ([8]; first compound 0.4 µM) was 0.462 and the relative viability ([8]; first compound 1.265 µM) was 0.492. The relative viability ([8]; first compound 4 µM) was 0.33, the relative viability ([9]; first compound 0.04 µM) was 0.159 and the relative viability ([9]; first compound 0.1265 µM) was 0.295. It also gave a relative viability ([9]; first compound 0.4 µM) of 0.249, a relative viability ([9]; first compound 4 µM) of 0.202 and a relative viability ([10]; first compound 0.04 µM) of 0.38. For the same compound, the relative viability ([10]; first compound 0.1265 µM) was 0.44, the relative viability ([10]; first compound 0.4 µM) was 0.376 and the relative viability ([10]; first compound 1.265 µM) was 0.456. The relative viability ([10]; first compound 4 µM) was 0.522, the relative viability ([11]; first compound 0.04 µM) was 0.163 and the relative viability ([11]; first compound 0.1265 µM) was 0.211. For the same compound, the relative viability ([11]; first compound 0.4 µM) was 0.165, the relative viability ([11]; first compound 1.265 µM) was 0.193 and the relative viability ([11]; first compound 4 µM) was 0.168. For the same compound, the relative viability ([12]; first compound 0.04 µM) was 0.931, the relative viability ([12]; first compound 0.1265 µM) was 0.933 and the relative viability ([12]; first compound 0.4 µM) was 0.887. It also gave a relative viability ([12]; first compound 1.265 µM) of 0.93, a relative viability ([12]; first compound 4 µM) of 0.926 and a relative viability ([13]; first compound 0.04 µM) of 0.798. It also gave a relative viability ([13]; first compound 0.1265 µM) of 0.754, a relative viability ([13]; first compound 0.4 µM) of 0.767 and a relative viability ([13]; first compound 1.265 µM) of 0.652. The relative viability ([13]; first compound 4 µM) was 0.973, the relative viability ([14]; first compound 0.04 µM) was 0.893 and the relative viability ([14]; first compound 0.1265 µM) was 0.762. It also gave a relative viability ([14]; first compound 0.4 µM) of 0.828, a relative viability ([14]; first compound 1.265 µM) of 0.732 and a relative viability ([14]; first compound 4 µM) of 0.592. The relative viability ([15]; first compound 0.04 µM) was 0.27, the relative viability ([15]; first compound 0.1265 µM) was 0.296 and the relative viability ([15]; first compound 0.4 µM) was 0.273. The relative viability ([15]; first compound 1.265 µM) was 0.297, the relative viability ([15]; first compound 4 µM) was 0.203 and the relative viability ([16]; first compound 0.04 µM) was 0.911. The relative viability ([16]; first compound 0.1265 µM) was 0.986, the relative viability ([16]; first compound 0.4 µM) was 0.864 and the relative viability ([16]; first compound 1.265 µM) was 0.861. It also gave a relative viability ([16]; first compound 4 µM) of 0.698, a relative viability ([17]; first compound 0.04 µM) of 0.644 and a relative viability ([17]; first compound 0.1265 µM) of 0.667. It also gave a relative viability ([17]; first compound 0.4 µM) of 0.68, a relative viability ([17]; first compound 1.265 µM) of 0.641 and a relative viability ([17]; first compound 4 µM) of 0.452. For the same compound, the relative viability ([18]; first compound 0.04 µM) was 0.678, the relative viability ([18]; first compound 0.1265 µM) was 0.77 and the relative viability ([18]; first compound 0.4 µM) was 0.592. The relative viability ([18]; first compound 1.265 µM) was 0.56, the relative viability ([18]; first compound 4 µM) was 0.385 and the relative viability ([19]; first compound 0.04 µM) was 0.965. For the same compound, the relative viability ([19]; first compound 0.1265 µM) was 1.16, the relative viability ([19]; first compound 0.4 µM) was 0.973 and the relative viability ([19]; first compound 1.265 µM) was 0.852. For the same compound, the relative viability ([19]; first compound 4 µM) was 0.954, the relative viability ([20]; first compound 0.04 µM) was 0.171 and the relative viability ([20]; first compound 0.1265 µM) was 0.161. The relative viability ([20]; first compound 0.4 µM) was 0.144, the relative viability ([20]; first compound 1.265 µM) was 0.157 and the relative viability ([20]; first compound 4 µM) was 0.115. The relative viability ([21]; first compound 0.04 µM) was 0.521, the relative viability ([21]; first compound 0.1265 µM) was 0.509 and the relative viability ([21]; first compound 0.4 µM) was 0.448. It also gave a relative viability ([21]; first compound 1.265 µM) of 0.446, a relative viability ([21]; first compound 4 µM) of 0.239 and a relative viability ([22]; first compound 0.04 µM) of 0.919. It also gave a relative viability ([22]; first compound 0.1265 µM) of 0.956, a relative viability ([22]; first compound 0.4 µM) of 0.925 and a relative viability ([22]; first compound 1.265 µM) of 1.01. It also gave a relative viability ([22]; first compound 4 µM) of 0.866, a relative viability ([23]; first compound 0.04 µM) of 0.871 and a relative viability ([23]; first compound 0.1265 µM) of 0.79. The relative viability ([23]; first compound 0.4 µM) was 0.689, the relative viability ([23]; first compound 1.265 µM) was 0.777 and the relative viability ([23]; first compound 4 µM) was 0.823. For the same compound, the relative viability ([24]; first compound 0.04 µM) was 0.504, the relative viability ([24]; first compound 0.1265 µM) was 0.512 and the relative viability ([24]; first compound 0.4 µM) was 0.46. The relative viability ([24]; first compound 1.265 µM) was 0.477 and the relative viability ([24]; first compound 4 µM) was 0.379.
